The test has as its target HiBit-KRAS^G12C (Homo sapiens, UniProt P01116, G12C). The test is described as follows: HiBit degradation assay in SW1573 HiBit-KRas^G12C cells. It counts as cell-based. More on the design: expressed in transfected cells; host or cells: SW1573 (clone E6), modified pcDNA3.1 vector, TK promoter. Conditions: SW1573 HiBit-KRas^G12C, 0.1% DMSO, 24 hours; read-out: KRas^G12C-HIBit (SW1573; 0.1% DMSO) DC50*. A digest of the protocol:
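SW1573 cells stably expressing N-terminally HiBit-tagged KRAS G12C, under the TK promoter, were treated 24 h at 37 °C with 10 μM to 20 nM compound in 0.1% or 0.5% DMSO. Residual HiBit luminescence normalised to DMSO and fitted with a 4-parameter model for DC50 and Dmax. Points with ≥50% viability loss (alamar blue) excluded.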
Sequence of HiBit-KRAS^G12C (P01116 1-186 isoform P01116-2 G12C limits assumed): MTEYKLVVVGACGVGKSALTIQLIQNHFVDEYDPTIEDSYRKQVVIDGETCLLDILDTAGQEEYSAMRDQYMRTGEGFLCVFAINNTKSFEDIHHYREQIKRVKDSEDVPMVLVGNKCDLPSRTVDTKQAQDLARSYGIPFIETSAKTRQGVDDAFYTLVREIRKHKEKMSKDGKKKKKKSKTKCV
`C=CC(=O)N1CCN(c2nc(OCCN3CCC(OCCOc4cc([C@H](C(=O)N5C[C@@H](O)C[C@H]5C(=O)N[C@@H](C)c5ccc(-c6scnc6C)cc5)C(C)C)on4)CC3)nc3c(F)c(-c4cc(O)cc5ccccc45)c(Cl)cc23)C[C@@H]1CC#N` [Compound 2, (2S,4S)-1-[(2R)-2-{3-[2-({1-[2-({6-chloro-4-[(3S)-3-(cyanomethyl)-4-(prop-2-enoyl)piperazin-1-yl]-8-fluoro-7-(3-hydroxynaphthalen-1-yl)quinazolin-2-yl}oxy)ethyl]piperidin-4-yl}oxy)ethoxy]-1,2-oxazol-5-yl}-3-methylbutanoyl]-4-hydroxy-N-[(1S)-1-[4-(4-methyl-1,3-thiazol-5-yl)phenyl]ethyl]pyrrolidine-2-carboxamide]: the DC50 is greater than 1000 nM.
For `C=CC(=O)N1CCN(c2nc(O[C@H](C)CN3CCC(OCCOCC(=O)N[C@H](C(=O)N4C[C@H](O)C[C@H]4C(=O)N[C@@H](C)c4ccc(-c5scnc5C)cc4)C(C)(C)C)CC3)nc3c(F)c(-c4c(O)cccc4F)c(Cl)cc23)C[C@H]1C` [Compound 44, (2S,4R)-1-[(2S)-2-{2-[2-({1-[(2R)-2-{[6-chloro-8-fluoro-7-(2-fluoro-6-hydroxyphenyl)-4-[(3R)-3-methyl-4-(prop-2-enoyl)piperazin-1-yl]quinazolin-2-yl]oxy}propyl]piperidin-4-yl}oxy)ethoxy]acetamido}-3,3-dimethylbutanoyl]-4-hydroxy-N-[(1S)-1-[4-(4-methyl-1,3-thiazol-5-yl)phenyl]ethyl]pyrrolidine-2-carboxamide], the DC50 is greater than 1000 nM.
As to `C=CC(=O)N1CCN(c2nc(O[C@H](C)CN3CCC(OCCOCCOCCOc4cc(-c5scnc5C)ccc4CNC(=O)[C@@H]4C[C@@H](O)CN4C(=O)[C@@H](c4cc(C)no4)C(C)C)CC3)nc3c(F)c(-c4cc(O)cc5ccccc45)c(Cl)cc23)CC1` [Compound 70, (2S,4R)-N-{[2-(2-{2-[2-({1-[(2R)-2-{[6-chloro-8-fluoro-7-(3-hydroxynaphthalen-1-yl)-4-[4-(prop-2-enoyl)piperazin-1-yl]quinazolin-2-yl]oxy}propyl]piperidin-4-yl}oxy)ethoxy]ethoxy}ethoxy)-4-(4-methyl-1,3-thiazol-5-yl)phenyl]methyl}-4-hydroxy-1-[(2R)-3-methyl-2-(3-methyl-1,2-oxazol-5-yl)butanoyl]pyrrolidine-2-carboxamide], the DC50 was greater than 1000 nM.
Regarding `C=C(F)C(=O)N1CCN(c2nc(O[C@H](C)CN3CCC(COc4cc([C@H](C(=O)N5C[C@H](O)C[C@H]5C(=O)N[C@@H](C)c5ccc(-c6scnc6C)cc5)C(C)C)on4)CC3)nc3c(F)c(-c4cc(O)cc5ccccc45)c(Cl)cc23)CC1` [Compound 14, (2S,4R)-1-[(2R)-2-[3-({1-[(2R)-2-({6-chloro-8-fluoro-4-[4-(2-fluoroprop-2-enoyl)piperazin-1-yl]-7-(3-hydroxynaphthalen-1-yl)quinazolin-2-yl}oxy)propyl]piperidin-4-yl}methoxy)-1,2-oxazol-5-yl]-3-methylbutanoyl]-4-hydroxy-N-[(1S)-1-[4-(4-methyl-1,3-thiazol-5-yl)phenyl]ethyl]pyrrolidine-2-carboxamide], the DC50 is greater than 1000 nM.
Regarding `C=CC(=O)N1CCN(c2nc(OCCN3CCC(COCC(=O)N[C@H](C(=O)N4C[C@H](O)C[C@H]4C(=O)N[C@@H](C)c4ccc(-c5scnc5C)cc4)C(C)(C)C)CC3)nc3c(F)c(-c4cc(O)cc5ccccc45)c(Cl)cc23)CC1` (atropisomer, axis not shown) [Compound 10, (2S,4R)-1-[(2S)-2-(2-{[1-(2-{[6-chloro-8-fluoro-7-(3-hydroxynaphthalen-1-yl)-4-[4-(prop-2-enoyl)piperazin-1-yl]quinazolin-2-yl]oxy}ethyl)piperidin-4-yl]methoxy}acetamido)-3,3-dimethylbutanoyl]-4-hydroxy-N-[(1S)-1-[4-(4-methyl-1,3-thiazol-5-yl)phenyl]ethyl]pyrrolidine-2-carboxamide], the DC50 is greater than 1000 nM.
Turning to `C=CC(=O)N1CCN(c2nc(O[C@H](C)CN3CCC(CC(=O)N[C@H](C(=O)N4C[C@H](O)C[C@H]4C(=O)N[C@@H](C)c4ccc(-c5scnc5C)cc4)C(C)(C)C)CC3)nc3c(F)c(-c4cc(O)cc5ccccc45)c(Cl)cc23)CC1` [Compound 38, (2S,4R)-1-[(2S)-2-(2-{1-[(2R)-2-{[6-chloro-8-fluoro-7-(3-hydroxynaphthalen-1-yl)-4-[4-(prop-2-enoyl)piperazin-1-yl]quinazolin-2-yl]oxy}propyl]piperidin-4-yl}acetamido)-3,3-dimethylbutanoyl]-4-hydroxy-N-[(1S)-1-[4-(4-methyl-1,3-thiazol-5-yl)phenyl]ethyl]pyrrolidine-2-carboxamide], the DC50 is greater than 1000 nM.
As to `C=CC(=O)N1CCN(c2nc(O[C@H](C)CN3CCC(CN4CC5(CN(CC(=O)N[C@H](C(=O)N6C[C@H](O)C[C@H]6C(=O)N[C@@H](C)c6ccc(-c7scnc7C)cc6)C(C)(C)C)C5)C4)CC3)nc3c(F)c(-c4cc(O)cc5ccccc45)c(Cl)cc23)CC1` [Compound 35, (2S,4R)-1-[(2S)-2-{2-[6-({1-[(2R)-2-{[6-chloro-8-fluoro-7-(3-hydroxynaphthalen-1-yl)-4-[4-(prop-2-enoyl)piperazin-1-yl]quinazolin-2-yl]oxy}propyl]piperidin-4-yl}methyl)-2,6-diazaspiro[3.3]heptan-2-yl]acetamido}-3,3-dimethylbutanoyl]-4-hydroxy-N-[(1S)-1-[4-(4-methyl-1,3-thiazol-5-yl)phenyl]ethyl]pyrrolidine-2-carboxamide], the DC50 is greater than 1000 nM.
The result for `C=C(F)C(=O)N1CCN(c2nc(OCCN3CCC(OCCOc4cc([C@@H](C(=O)N5C[C@H](O)C[C@H]5C(=O)N[C@@H](C)c5ccc(-c6scnc6C)cc5)C(C)C)on4)CC3)nc3c(F)c(-c4cc(O)cc5ccccc45)c(Cl)cc23)C[C@@H]1CC#N` [Compound 1, (2S,4R)-1-[(2S)-2-{3-[2-({1-[2-({6-chloro-4-[(3S)-3-(cyanomethyl)-4-(2-fluoroprop-2-enoyl)piperazin-1-yl]-8-fluoro-7-(3-hydroxynaphthalen-1-yl)quinazolin-2-yl}oxy)ethyl]piperidin-4-yl}oxy)ethoxy]-1,2-oxazol-5-yl}-3-methylbutanoyl]-4-hydroxy-N-[(1S)-1-[4-(4-methyl-1,3-thiazol-5-yl)phenyl]ethyl]pyrrolidine-2-carboxamide] reads greater than 1000 nM.

The values are drawn from patent US20220370416A1, “COMPOUNDS AND METHODS FOR TARGETED DEGRADATION OF KRAS” (Arvinas Operations, Inc., priority 2020, published 2022).
